These results are taken from BindingDB's records for doi:10.1016/0960-894X(95)00325-N (1995).

The nature of the assay: Binding affinity by its ability to displace [3H]DPDPE from delta receptor in homogenates of guinea pig brain.

In general, Ki refers to the dissociation constant of the complex between target and ligand, obtained from inhibition or displacement. With `COc1cccc2c1[C@]13CCN(C)[C@H](C2)[C@]1(OC)CCC(=O)C3` [3,10-dimethoxy-17-methyl-(10S)-17-azatetracyclo[7.5.3.01,10.02,7]heptadeca-2(7),3,5-trien-13-one], the affinity, expressed as Ki, was 46 nM.
In turn, `COc1cccc2c1[C@]13CCN(CC4CC4)[C@H](C2)[C@]1(OC)CCC(=O)C3` [Naltrindole analogue] showed an inhibition constant (Ki) of 105 nM.
With `COc1cccc2c1[C@]13CCN(CCc4ccccc4)C(C2)[C@]1(OC)CCC(=O)C3` [3,10-dimethoxy-17-phenethyl-17-azatetracyclo[7.5.3.01,10.02,7]heptadeca-2(7),3,5-trien-13-one; with HBr] the figure was 49 nM.
